Legend:
mES cells = experiment: Cell cycle arrest and cell cycle structure by flow cytometry of PI-stained mES cells; assay type: cell-based, murine; settings: up to concentrations of 140 μM
Procedure: Cdk2 activity levels determine the rate of mES cell division but not cell cycle structure. (A) mES cells were grown for up to 8 passages in the presence (+) or absence (−) of Ro09-3033 (2 μM). Cdk2, cyclin E and cyclin B-associated H1 kinase activities were assayed as described previously after immunoprecipitation from whole cell lysates (100 μg protein). Input loading control was determined by probing immunoblots (15 μg lysate protein) with α-Cdk2 and α-Oct4 polyclonal antibodies. Quantitation of H1 kinase activities are shown in the lower panel as the average of two independent experiments. (B) Northern blot analysis of Oct4, Rex-1 and GAPDH transcripts from mES cells grown with (+) or without (−) inhibitor (2 μM) for the number of passages indicated. RNA was resolved by agarose gel electrophoresis, blotted and hybridized with [^32P]-labelled Oct4, Rex-1 and GAPDH probes (15 μg total RNA per lane). […] (C) After 8 passages in the presence (+) or absence (−) of 2 μM Ro09-3033, mES and mEPL cells were fixed and stained with PI and analysed by flow cytometry. […] Generation times of mEPL cells were not determined in this experiment.
In preparation for flow cytometry, cells were resuspended in 300 μl of PBS supplemented with 1% FCS. […] Cells were stained by the addition of 2.5 mg/ml propidium iodide (Sigma) and 0.5 mg/ml RNAase A and analysed on a Beckman-Coulter flow cytometer with WinMDi software.

[1] = accumulation of cells at G1/S or G2/M, reference (31); cited from earlier work

Compound: CC[C@H](CO)Nc1nc(NCc2ccccc2)c2ncn(C(C)C)c2n1 [roscovitine]
- Effect on cell division times or cell cycle structure in mES cells (mES cells): no effect
- Concentration range in which it typically acts as a cell cycle specific inhibitor [1]: 20 to 30 µM

From patent publication US20030082803A1, “Cell cycle control” (priority 1999, published 2003)
